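48-hour exposure; five concentrations; linearly interpolated endpoints. At the GI50, growth is halved. TGI is the concentration that stops growth completely.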 *1 amine or outer side, *2 acyl side, *3 side chain or, on linkers, in order; H or OH if unused. Where a SMILES comes first, the peptide text is derived from it. [ ]: non-standard residue; d: D form. The star is where a group is joined. X31 = CC(=O)N(C)SCC(N[*:1])C(=O)[*:2]; Fmoc = O=C(OCC1c2ccccc2-c2ccccc21)*; For = O=C*
Assays:
Assay in all cases: NCI anticancer screen, dose series, 48 h
[1] = tested on: MALME-3M melanoma
[2] = tested on: MDA-MB-435
[3] = tested on: A498 renal
[4] = tested on: UACC-257 melanoma
[5] = tested on: M14 melanoma
[6] = tested on: OVCAR-8 ovarian
[7] = tested on: NCI-H23 lung
[8] = tested on: HOP-62 NSCLC
[9] = tested on: PC-3 prostate
[10] = tested on: SR leukemia

Compound	TGI [1] [µM]	TGI [2] [µM]	TGI [3] [µM]	TGI [4] [µM]	TGI [5] [µM]	TGI [6] [µM]	TGI [7] [µM]	TGI [8] [µM]	TGI [9] [µM]	TGI [10] [µM]	GI50 [1] [µM]	GI50 [2] [µM]	GI50 [3] [µM]	GI50 [4] [µM]	GI50 [5] [µM]	GI50 [6] [µM]	GI50 [7] [µM]	GI50 [8] [µM]	GI50 [9] [µM]	GI50 [10] [µM]
Cc1cc(C(O)CNC(C)CCn2cnc3c2c(=O)n(C)c(=O)n3C)ccc1O (stereo not drawn)	> 100	> 100	> 100	> 100	> 100	> 100	> 100	> 100	> 100	> 100										
Cc1ccc(S(=O)(=O)Nc2cc(Sc3ccccc3)c(O)c3ccccc23)cc1	19.6	3.26	28.8	3.67	19.9	5.88	22	25.5	9.29	12.6	7.17	1.8	13.1	1.86	6.49	2.28	4.44	7.99	2.2	3.27
O=c1c(Sc2ncccn2)c(Sc2ncccn2)cnn1CCl	4.25	3.87	36.3	6.77	4.76	7.53	18.3	8.05	8.79	12.4										
O=C(Nc1ccc(S(=O)(=O)Nc2ncccn2)cc1)c1c2ccccc2nc2ccccc12	> 100	> 100	> 100	> 100	> 100	> 100	> 100	> 100	> 100	> 100										
CCCOP(=S)(N1CC1)N1CC1	> 100		> 100	46.5	> 100	> 100	> 100	> 100		> 100										
COc1ccc(/C=C(\Cl)c2ccc(OC)cc2)cc1	> 100		> 100	> 100	> 100	> 100	> 100	> 100		> 100										
Cc1ncc(CO)c(C=NCCCCCCN=Cc2c(CO)cnc(C)c2O)c1O	> 100	> 100	> 100	> 100	> 100	> 100	> 100	> 100	> 100	> 100										
COC(=O)CCC(C)[C@H]1CCC2C3C(C[C@H](OC(C)=O)[C@@]21C)[C@@]1(C)CCC2(C[C@H]1C[C@H]3OC(C)=O)OOC1(CCCCC1)OO2 (stereo partly drawn)	97.4	> 100	> 100	> 100	> 100	> 100	> 100	8.31	> 100	> 100										
CC(=O)C1C(=O)C(=O)N(c2ccc(Br)cc2)C1=O (stereo not drawn)		> 100		> 100	> 100	> 100	> 100	> 100	> 100											
CC[C@H](C)[C@H]1NC(=O)[C@@H](NC(=O)[C@@H](CC(C)C)N(C)C(=O)C2CCCN2C(=O)[C@H](C)O)[C@@H](C)OC(=O)[C@H](Cc2ccccc2)N(C)C(=O)[C@@H]2CCCN2C(=O)[C@H](CC(C)C)NC(=O)[C@@H](C)C(=O)[C@H](C(C)C)OC(=O)C[C@@H]1O (stereo partly drawn)	0.0213		0.0508	< 0.00625	0.0257	0.0461		0.0639	0.119											
CC#Cc1c(C#CC)c(OC)c2c(c1OC)C(=O)c1ccccc1C2=O	> 100		> 100	> 100	> 100	> 100	> 100	45.4		> 100										
CC1=C(C(=O)NC(C)(C)C)CC(C(=O)NC(C)(C)C)C(C)N1 (stereo not drawn)		> 100	> 100	> 100	> 100	> 100	> 100	> 100	> 100											
O=C(O)CCc1nc2cc3ccccc3cc2[nH]c1=O		> 100	> 100	> 100	> 100	> 100	> 100	> 100	> 100	> 100										
COc1ccccc1Cn1[nH]c(=O)c2cc([N+](=O)[O-])ccc21	> 100	> 100	> 100	> 100	> 100	> 100	> 100	> 100		> 100										
CN(C)C(=O)Oc1ccc(C(=S)Nc2ccccc2)cc1Br	> 100	43.9		74	39.8	39.4	57.3	> 100	> 100	63.3										
CSc1nc(-c2ccc(Cl)cc2)c(C#N)c(=O)[nH]1		> 100	> 100	> 100	> 100	> 100	> 100	> 100	> 100											
CCOC(=O)c1c(NC(=O)c2ccc(Br)cc2)sc2c1CCCC2		> 100	> 100	> 100	> 100	> 100	> 100	> 100	> 100	> 100										
CC/C=C/C(/C=C/C[C@]1(CC)C[C@H](CC)[C@H](CC(=O)O)OO1)CC (stereo partly drawn)	29.3	4.46	28.9	28.9	26.5	13.1	6.04	3.5	3.69											
CC(=O)C1=NN(c2ccccc2)C2(S1)SC(c1ccccc1)(c1ccccc1)c1ccccc12 (stereo not drawn)	> 100		> 100	> 100	> 100	> 100	> 100	> 100		> 100										
CCCCCCC(=O)OC[n+]1cccc(-c2c(COC(=O)NC(C)C)c(COC(=O)NC(C)C)c3n2CCC3)c1	98.5	> 100	44.9	> 100	> 100	> 100	> 74.1	> 100	> 100											
Cc1ccc(Nc2cn(COCc3ccccc3)c(=O)[nH]c2=O)cc1		> 100	> 100	> 100	> 100		> 100	> 100	> 100	> 100										
CSc1nc(C)c(CCCl)c(Cl)n1	> 100	> 100	> 100	> 100	> 100	> 100	> 100	> 100	> 100											

Compound	TGI [1] [µM]	TGI [2] [µM]	TGI [3] [µM]	TGI [4] [µM]	TGI [5] [µM]	TGI [6] [µM]	TGI [7] [µM]	TGI [8] [µM]	TGI [9] [µM]	TGI [10] [µM]	GI50 [1] [µM]	GI50 [2] [µM]	GI50 [3] [µM]	GI50 [4] [µM]	GI50 [5] [µM]	GI50 [6] [µM]	GI50 [7] [µM]	GI50 [8] [µM]	GI50 [9] [µM]	GI50 [10] [µM]
O=C1C(NS(=O)(=O)c2ccccc2)=C(N(Cc2ccccc2)Cc2ccccc2)C(=O)c2ccccc21	0.584	> 100		> 100	> 100	> 100	73.2	> 100	> 100	> 100										
O=[N+]([O-])c1ccc2[nH]c(O)c(N=NC(=S)Nc3ccccc3)c2c1		26.9	13.2	27.4	22.4	31.8	25.8	21.8	20.7	> 100										
CN(C)Cc1[nH]c2ccccc2c1C(=O)c1ccccc1	> 100			> 100	> 100	> 100	> 100	> 100		> 100										
O=C1c2ccccc2C(=O)c2c(O)c(NCCNCCO)cc(O)c21	26.5		21	19.6	16	12.6	16.7	11.5		9.04										
N#Cc1c(N2CCOCC2)ncn(-c2ccc(Cl)cc2)c1=O		> 100	> 100	> 100	> 100	> 100	> 100	> 100	> 100	> 100										
Cc1cc(C#N)c(Nc2ccccc2[N+](=O)[O-])s1		47.5	> 100	> 100	> 100	> 100	> 100	90.9	73.9	> 100										
O=C1/C(=C/c2ccc(Cl)cc2)Sc2scc(-c3cccc([N+](=O)[O-])c3)[n+]21		13.2		10.9	> 35		12.9	> 69.7	20.6	2.42										
c1ccc(CSC(SCc2ccccc2)c2ccc3c(c2)OCO3)cc1	> 10		> 10	> 10	> 10	> 10	> 10	> 10	> 10											
COc1ccc(C2C(Cl)C(=O)N2NC(=O)c2ccccc2O)cc1OC (stereo not drawn)	> 100		> 100	> 100	> 100	> 100	> 100													
COc1cc2c(cc1OCCCCN1CCN(CCCCOc3cc4c(cc3OC)C(=O)N3CCC[C@H]3C=N4)CC1)N=C[C@@H]1CCCN1C2=O		0.165	0.0692	0.676	0.0936	18.6	0.0914	> 42	3.12	> 100										
CC1(C)N=C(Oc2ccccc2)n2nccc2N1	> 100		> 100	> 100	> 100		> 100	> 100		> 100										
COc1nc(OC)nc(Sc2ccc(Sc3ccc(Sc4nc(OC)nc(OC)n4)cc3)cc2)n1	> 100		> 100	> 100	> 100	> 100	> 100			> 100										
COC(=O)CNCC1OC2OC(C)(C)OC2C1N=[N+]=[N-] (stereo not drawn)		> 100	> 100	> 100		> 100		> 100	> 100	> 100										
CC(=O)N(C)SCC(NC(=O)C(Cc1ccccc1)NC(=O)OCC1c2ccccc2-c2ccccc21)C(=O)NC(Cc1ccccc1)C(=O)NC(Cc1cn(C=O)c2ccccc12)C(=O)NC(CCCCNC(=O)OCC1c2ccccc2-c2ccccc21)C(=O)NC(C(=O)NC(CSN(C)C(C)=O)C(=O)NC(C(N)=O)C(C)O)C(C)O (stereo not drawn) (Fmoc-F[X31]FW(For)K(Fmoc)T[X31]T-NH2; configuration not given here)	> 100	> 100		> 100	> 100	> 100	> 100	> 100	> 100	> 100										
Oc1ccccc1-n1nc2ccc3nonc3c2n1	> 100	> 100		> 100	> 100	> 100	> 100	> 100	> 100	> 100										
COC(=O)[C@@H]1[C@H](O)CC[C@H]2[C@@]1(C)CC[C@@H](C)[C@]2(COC(C)=O)CC(=O)c1ccoc1		> 50	> 50	> 50	> 50	> 50	> 50		> 50	> 50										
NCCCCCNOCCCN	> 100	> 100		> 100	> 100	> 100	> 100	> 100	> 100	> 100										
Cc1[nH]c2ccccc2c1C1=CC(=O)N(c2ccccc2)C1=O	41.9	> 100	60.3	61.5	32.2	50	60.9	25.5	> 100											
COC1C(OC(N)=O)C(O)C(Oc2ccc3c(O)c(NC(=O)c4ccc(O)c(CC=C(C)C)c4)c(=O)oc3c2C)OC1(C)C (stereo not drawn)	> 100	> 100	> 100	> 100	> 100	> 100		> 100	> 100	> 100										
Cc1ccc(F)c2c(=O)cc(-c3ccccc3)[nH]c12	> 100			> 100	> 100	> 100	> 100	> 100		> 100										
C=CCC1C2CCC(O[Si](C(C)C)(C(C)C)C(C)C)(C(C(=O)OC)C2)C1O (stereo not drawn)		> 100	> 100	> 100	> 100	> 100	> 100	> 100	> 100	> 100										
CCOC(=O)NC(=S)NC(C)c1ccccc1 (stereo not drawn)	> 100	> 100		> 100	> 100	> 100	> 100	> 100	> 100	> 100										

From PubChem BioAssay (NCI)
